The text below walks through data of patent US20260158017A1, “KIF18A INHIBITOR” (WIGEN BIOMEDICINE TECHNOLOGY (SHANGHAI) CO., LTD., priority 2021, published 2026).

SMILES strings stand for the structures.

Assay [1] concerns the target T1, Recombinant human KIF18A (1-467His-tagged) protein (Homo sapiens, UniProt Q8NI77).
T1 construct: Recombinant human KIF18A (1-467His-tagged) protein; His; made in house
Kind of assay: KIF18A enzyme assay (microtubule-stimulated ATPase activity, ADP-Glo). To be noted: 30 nM KIF18A, 75 μM ATP, 30 μg/mL pig microtubules; read-out: Inhibitory activity against KIF18A IC50. It counts as biochemical. Put shortly: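 Buffer 15 mM Tris pH 7.5, 10 mM MgCl2, 0.01% Pluronic F-68, 1 μM paclitaxel, 30 μg/mL pig microtubules; reactions at room temperature. IC50 from inhibition relative to DMSO.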

Another assay deals with HT-29 cells. Kind of assay: In vitro anti-proliferative activity against HT-29 cells (intracellular ATP content, 72 h). Format: cell-based. To be noted: Homo sapiens, 72 h after dosing. The procedure: Biological Example 2. In Vitro Anti-Proliferative Activity of the Compounds of the Present Invention Against HT-29 Cells
HT-29 cells were seeded on a 384-well plate at 3000 cells/well. After overnight adherence culture, DMSO or the compounds serially 1:5-diluted from 5 μM were added. The viability of the cells was assessed 72 h after dosing by measuring the intracellular ATP content. The inhibition percentages of viable cells by the compounds were calculated by comparing with the DMSO group, and the IC50 values were also calculated.

A further assay relates to HCT116 cells. Kind of assay: In vitro anti-proliferative activity against HCT116 cells (intracellular ATP content, 72 h). To be noted: Homo sapiens, HCT-116, 72 h after dosing. It counts as cell-based. The procedure:
Biological Example 3. In Vitro Anti-Proliferative Activity of the Compounds of the Present Invention Against HCT116 Cells
HCT116 cells were seeded on a 384-well plate at 3000 cells/well. After overnight adherence culture, DMSO or the compounds serially 1:5-diluted from 5 μM were added. The viability of the cells was assessed 72 h after dosing by measuring the intracellular ATP content. The inhibition percentages of viable cells by the compounds were calculated by comparing with the DMSO group, and the IC 50 values were also calculated.

Assay [2] relates to HT29 subcutaneous xenograft tumor. Kind of assay: In vivo pharmacodynamic study, mouse HT29 subcutaneous xenograft tumor model. Set-up: species or system BALB/c nude mice. To be noted: 80 mg/kg intragastric once daily. The procedure: Biological Example 4. In Vivo Pharmacodynamic Study-Mouse HT29 Subcutaneous Xenograft Tumor Model
BALB/c nude mice were inoculated subcutaneously with 5×10^6 HT29 cells on the left dorsal side. After the tumors grew to 100-150 mm^3, the mice were randomly divided into the following groups for intragastric administration once daily: group 1: vehicle control group; group 2: compound 661 (80 mg/kg); group 3: compound 669 (80 mg/kg); group 4: compound 677 (80 mg/kg); group 5: compound 714 (80 mg/kg); group 6: compound 727 (80 mg/kg); group 7: compound 740 (80 mg/kg); and group 8: AMG650 (80 mg/kg). The tumor volume was measured twice weekly and at the end of treatment.

The term IC50 denotes the midpoint of a concentration-inhibition curve.

T1 sequence (Q8NI77 1-467): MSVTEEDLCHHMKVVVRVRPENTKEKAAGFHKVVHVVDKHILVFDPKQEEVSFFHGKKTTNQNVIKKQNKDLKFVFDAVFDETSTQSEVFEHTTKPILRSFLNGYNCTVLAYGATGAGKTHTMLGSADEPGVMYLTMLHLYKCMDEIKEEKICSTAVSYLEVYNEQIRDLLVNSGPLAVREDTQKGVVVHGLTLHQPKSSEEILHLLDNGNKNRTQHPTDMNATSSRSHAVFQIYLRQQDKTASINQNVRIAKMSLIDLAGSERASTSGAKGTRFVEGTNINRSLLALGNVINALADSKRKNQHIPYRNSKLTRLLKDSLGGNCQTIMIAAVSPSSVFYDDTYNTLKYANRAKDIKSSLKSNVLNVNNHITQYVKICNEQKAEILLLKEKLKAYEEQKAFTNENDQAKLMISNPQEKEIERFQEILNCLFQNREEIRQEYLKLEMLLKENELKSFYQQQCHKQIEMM
T1 sequence (P02550 whole entry partner): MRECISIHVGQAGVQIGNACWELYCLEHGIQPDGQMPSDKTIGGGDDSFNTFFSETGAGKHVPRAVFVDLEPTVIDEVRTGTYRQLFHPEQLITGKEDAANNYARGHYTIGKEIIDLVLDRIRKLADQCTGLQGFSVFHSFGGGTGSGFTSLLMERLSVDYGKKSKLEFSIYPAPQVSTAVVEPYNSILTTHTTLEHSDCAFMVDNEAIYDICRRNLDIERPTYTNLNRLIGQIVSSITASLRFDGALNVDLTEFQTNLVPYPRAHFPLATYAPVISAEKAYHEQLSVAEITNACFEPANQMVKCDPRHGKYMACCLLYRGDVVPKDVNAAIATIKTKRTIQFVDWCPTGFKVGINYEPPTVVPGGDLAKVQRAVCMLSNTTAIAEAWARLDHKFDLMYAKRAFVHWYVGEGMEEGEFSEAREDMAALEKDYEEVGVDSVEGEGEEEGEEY
T1 sequence (P02554 whole entry partner): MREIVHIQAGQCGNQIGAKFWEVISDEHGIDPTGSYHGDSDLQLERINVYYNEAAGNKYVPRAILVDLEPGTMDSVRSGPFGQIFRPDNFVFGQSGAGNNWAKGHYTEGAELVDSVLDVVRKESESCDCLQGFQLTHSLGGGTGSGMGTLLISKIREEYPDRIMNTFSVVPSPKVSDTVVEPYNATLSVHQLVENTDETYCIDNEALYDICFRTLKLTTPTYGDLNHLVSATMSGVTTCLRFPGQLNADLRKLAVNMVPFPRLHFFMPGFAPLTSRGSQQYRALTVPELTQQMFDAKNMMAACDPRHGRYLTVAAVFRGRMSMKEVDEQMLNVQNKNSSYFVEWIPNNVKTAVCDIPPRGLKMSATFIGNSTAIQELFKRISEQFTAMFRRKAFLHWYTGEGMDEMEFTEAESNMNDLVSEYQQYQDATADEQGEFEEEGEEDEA

As to `O=C(Nc1ccc([N+](=O)[O-])c(N2CCC(F)(F)CC2)c1)c1ccc(NS(=O)(=O)CCO)cc1N1CCC2(CC1)CC2` [Compound 1], the figures for the IC50 (in assay [1]; with HT-29 cells; in the assay on HCT116 cells) were at most 0.1 µM, 0.0753 µM and above 10 µM, respectively.

Consider `C[C@H]1CN(c2cc(NC(=O)c3ccc(NS(=O)(=O)CCO)cc3N3CCC4(CC3)CC4)ccc2[N+](=O)[O-])CCO1` [Compound 3], for which the IC50 was at most 0.1 µM in assay [1], 1.6 µM in the assay on HT-29 cells and above 10 µM with HCT116 cells.

Turning to `O=C(Nc1ccc([N+](=O)[O-])c(N2CC(F)(F)C2)c1)c1ccc(NS(=O)(=O)CCO)cc1N1CCC2(CC1)CC2` [Compound 4], the IC50 in assay [1] was at most 0.1 µM; with HT-29 cells, 0.191 µM; in the assay on HCT116 cells it was above 10 µM.

For the compound `O=C(Nc1ccc([N+](=O)[O-])c(N2CCC3(CC3)C2)c1)c1ccc(NS(=O)(=O)CCO)cc1N1CCC2(CC1)CC2` [Compound 6], the IC50 in assay [1] was at most 0.1 µM; in the assay with HT-29 cells, 0.826 µM; in the assay on HCT116 cells it was above 10 µM.

For the compound `O=C(Nc1ccc([N+](=O)[O-])c(OC2CCC2)c1)c1ccc(NS(=O)(=O)CCO)cc1N1CCC2(CC1)CC2` [Compound 7], the figures for the half-inhibitory concentration (IC50) (in assay [1]; in the assay with HT-29 cells; in the assay on HCT116 cells) were at most 0.1 µM, 0.339 µM and above 10 µM, respectively.

Regarding `O=C(Nc1ccc([N+](=O)[O-])c(N2CCC(F)(F)CC2)c1)c1cnc(NS(=O)(=O)CCO)cc1N1CCC2(CC1)CC2` [Compound 97], the IC50 in assay [1] is at most 0.1 µM; in the assay on HT-29 cells, above 2 µM; in the assay on HCT116 cells it was above 10 µM.

For `O=C(Nc1ccc([N+](=O)[O-])c(N2CCC(F)(F)CC2)n1)c1cnc(NS(=O)(=O)CCO)cc1N1CCC2(CC1)CC2` [Compound 129], the figures for the IC50 (in assay [1]; in the assay with HT-29 cells; with HCT116 cells) were at most 0.1 µM, 0.135 µM and above 10 µM, respectively.

On to `COc1ccc(NC(=O)c2ccc(NS(=O)(=O)CCO)cc2N2CCC3(CC2)CC3)nc1N1CCO[C@H](C)C1` [Compound 258], for which the IC50 in assay [1] was at most 0.1 µM; with HT-29 cells, 0.19 µM; with HCT116 cells, above 10 µM.

In the case of `COc1ccc(NC(=O)c2ccc(NS(=O)(=O)CCO)cc2N2CCC3(CC2)CC3)nc1N1CCO[C@@H](C)C1` [Compound 259], the results for the half-inhibitory concentration (IC50) (in assay [1]; with HT-29 cells; in the assay with HCT116 cells) were at most 0.1 µM, 0.282 µM and above 10 µM, respectively.

With `COc1ccc(NC(=O)c2ccc(NS(=O)(=O)CCO)cc2N2CCC3(CC2)CC3)nc1N1CC(F)(F)C1` [Compound 260], the IC50 in assay [1] was at most 0.1 µM; with HT-29 cells, 0.0552 µM; with HCT116 cells, above 10 µM.

As for `COc1ccc(NC(=O)c2ccc(NS(=O)(=O)CCO)cc2N2CCC3(CC2)CC3)nc1OCCC(F)(F)F` [Compound 261], the IC50 in assay [1] is at most 0.1 µM; in the assay on HT-29 cells, 0.0757 µM; in the assay with HCT116 cells, above 10 µM.

Take `COc1ccc(NC(=O)c2ccc(NS(=O)(=O)CCO)cc2N2CCC3(CC2)CC3)nc1N1CCC2(CC2)C1` [Compound 262]: the IC50 in assay [1] is at most 0.1 µM; in the assay on HT-29 cells it was 0.242 µM; with HCT116 cells, above 10 µM.

For the compound `COc1ccc(NC(=O)c2ccc(NS(=O)(=O)CCO)cc2N2CCC3(CC2)CC3)nc1OC1CCC1` [Compound 263], the values for the IC50 (in assay [1]; in the assay on HT-29 cells; in the assay on HCT116 cells) were at most 0.1 µM, 0.0857 µM and above 10 µM, respectively.

Regarding `COc1ccc(NC(=O)c2cnc(NS(=O)(=O)CCO)cc2N2CCC3(CC2)CC3)nc1N1CCC(F)(F)CC1` [Compound 289], the IC50 is at most 0.1 µM in assay [1], 0.0277 µM in the assay with HT-29 cells and above 10 µM with HCT116 cells.

With `COc1ccc(NC(=O)c2cnc(S(=O)(=O)NCCO)cc2N2CCC3(CC2)CC3)nc1N1CCC(F)(F)CC1` [Compound 305], the IC50 was at most 0.1 µM in assay [1], 0.0404 µM in the assay on HT-29 cells and above 10 µM with HCT116 cells.

For `COc1ccc(C(=O)Nc2ccc(S(=O)(=O)NCCO)cc2N2CCC3(CC2)CC3)nc1N1CCC(F)(F)CC1` [Compound 337], the half-maximal inhibitory concentration (IC50) in assay [1] was at most 0.1 µM; with HT-29 cells, 0.0488 µM; with HCT116 cells, above 10 µM.

Consider `O=C(Nc1ccc(OCF)c(N2CCC(F)(F)CC2)c1)c1ccc(NS(=O)(=O)CCO)cc1N1CCC2(CC1)CC2` [Compound 385], for which the figures for the IC50 (in assay [1]; in the assay with HT-29 cells; with HCT116 cells) were at most 0.1 µM, 0.146 µM and above 10 µM, respectively.

With `CSc1ccc(NC(=O)c2ccc(NS(=O)(=O)CCO)cc2N2CCC3(CC2)CC3)nc1N1CCC(F)(F)CC1` [Compound 593], the IC50 in assay [1] was at most 0.1 µM; with HT-29 cells, 0.0979 µM; in the assay with HCT116 cells it was above 10 µM.

On to `CSc1ccc(NC(=O)c2cnc(NS(=O)(=O)CCO)cc2N2CCC3(CC2)CC3)nc1N1CCC(F)CC1` [Compound 633], for which the half-inhibitory concentration (IC50) in assay [1] is at most 0.1 µM.

`CSc1ccc(NC(=O)c2cnc(NS(=O)(=O)CCO)cc2N2CCC3(CC2)CC3)nc1N1CC2CC2C1` (stereo not drawn) [Compound 634]: the concentration for half-maximal inhibition (IC50) in assay [1] is at most 0.1 µM.

For `CSc1ccc(NC(=O)c2cnc(NS(=O)(=O)CCO)cc2N2CCC3(CC2)CC3)nc1NC(C)(C)CO` [Compound 635], in assay [1], the IC50 was at most 0.1 µM.

Turning to `CSc1ccc(NC(=O)c2cnc(NS(=O)(=O)CCO)cc2N2CCC3(CC2)CC3)nc1N1CCOCC1` [Compound 636], the IC50 in assay [1] is at most 0.1 µM.

`CSc1ccc(NC(=O)c2cnc(NS(=O)(=O)[C@@H](C)CO)cc2N2CCC3(CC2)CC3)nc1N1CCC(F)(F)CC1` [Compound 637]: in assay [1], the IC50 was at most 0.1 µM.

Turning to `CSc1ccc(NC(=O)c2cnc(NS(=O)(=O)[C@H](C)CO)cc2N2CCC3(CC2)CC3)nc1N1CCC(F)(F)CC1` [Compound 638], the IC50 in assay [1] was at most 0.1 µM.

`CSc1ccc(NC(=O)c2cnc(NS(=O)(=O)[C@@H](C)CO)cc2N2CCC3(CC2)CC3)nc1N1CCO[C@H](C)C1` [Compound 639]: the IC50 in assay [1] was at most 0.1 µM.

Consider `CSc1ccc(NC(=O)c2cnc(NS(=O)(=O)[C@H](C)CO)cc2N2CCC3(CC2)CC3)nc1N1CCO[C@H](C)C1` [Compound 640], for which the IC50 in assay [1] is at most 0.1 µM.

In the case of `CNc1ccc(NC(=O)c2ccc(NS(=O)(=O)CCO)cc2N2CCC3(CC2)CC3)nc1N1CCC(F)(F)CC1` [Compound 643], the IC50 is 0.0342 µM in the assay with HT-29 cells and above 10 µM in the assay on HCT116 cells.

Take `CN(C)c1ccc(NC(=O)c2ccc(NS(=O)(=O)CCO)cc2N2CCC3(CC2)CC3)nc1N1CCC(F)(F)CC1` [Compound 647]: the IC50 with HT-29 cells was 0.334 µM; in the assay with HCT116 cells, above 10 µM.

Turning to `O=C(Nc1ccc(OC(F)(F)F)c(N2CCC(F)(F)CC2)c1)c1ccc(NS(=O)(=O)CCO)cc1N1CCC2(CC1)CC2` [Compound 655], the IC50 with HT-29 cells was 1.17 µM; in the assay with HCT116 cells, above 10 µM.

`COc1ccc(NC(=O)c2ccc(S(=O)(=O)NCCOC(C)=O)cc2N2CCC3(CC2)CC3)nc1N1CCC(F)(F)CC1` [Compound 677]: in assay [2] (baseline day 1), the “Tumor volume on day 1 of treatment” value is recorded as 121 mm^3. In addition, the “Tumor volume on day 28 of treatment” value in assay [2] (day 28) stood at 797 mm^3. The “TGI (tumor growth inhibition)” value in assay [2] (day 28 vs day 1) stood at 55%.

Consider `Nc1ccc(NC(=O)c2ccc(NS(=O)(=O)CCO)cc2N2CCC3(CC2)CC3)cc1N1CCC(F)(F)CC1` [Compound 701], for which the results for the half-inhibitory concentration (IC50) in the assay on HT-29 cells and in the assay with HCT116 cells were 0.0767 µM and above 10 µM, respectively.

As to `CCOc1ccc(NC(=O)c2ccc(NS(=O)(=O)CCO)cc2N2CCC3(CC2)CC3)nc1N1CCC(F)(F)CC1` [Compound 702], the IC50 in the assay with HT-29 cells was 0.0712 µM; in the assay with HCT116 cells, above 10 µM.

For the compound `CN(C)c1ccc(C(=O)Nc2ccc(NS(=O)(=O)CCO)cc2N2CCC3(CC2)CC3)cc1N1CCC(F)(F)CC1` [Compound 703], the values for the IC50 with HT-29 cells and in the assay on HCT116 cells were 0.184 µM and above 10 µM, respectively.

For the compound `CNc1ccc(C(=O)Nc2ccc(NS(=O)(=O)CCO)cc2N2CCC3(CC2)CC3)cc1N1CCC(F)(F)CC1` [Compound 704], the IC50 was 0.0642 µM in the assay with HT-29 cells and above 10 µM in the assay on HCT116 cells.

Consider `CN(C)c1ccc(C(=O)Nc2ccc(NS(=O)(=O)CCO)cc2N2CCC3(CC2)CC3)nc1N1CCC(F)(F)CC1` [Compound 705], for which the results for the IC50 in the assay with HT-29 cells and in the assay with HCT116 cells were 0.146 µM and above 10 µM, respectively.

As to `COc1ccc(NC(=O)c2ccc(NS(=O)(=O)CCO)cc2N2CCC(C)(C(F)(F)F)CC2)nc1N1CCC(F)(F)CC1` [Compound 833], the IC50 was 0.0529 µM with HT-29 cells and above 10 µM in the assay on HCT116 cells.

In the case of `COc1ccc(NC(=O)c2ccc(NS(=O)(=O)CCO)cc2N2CCC3(CC2)CC3)nc1NCCC(F)(F)F` [Compound 835], the IC50 was 0.0707 µM in the assay on HT-29 cells and above 10 µM in the assay with HCT116 cells.

In the case of `COc1c(C)cc(NC(=O)c2ccc(NS(=O)(=O)CCO)cc2N2CCC3(CC2)CC3)nc1N1CCC(F)(F)CC1` [Compound 836], the values for the IC50 in the assay with HT-29 cells and with HCT116 cells were 0.253 µM and above 10 µM, respectively.
